Data from patent US20250051355A1, “COMPOUNDS, COMPOSITIONS, AND METHODS” (ACONCAGUA BIO, INC., priority 2023, published 2025).

Assays:
Assay type in all cases: cell-based
[1] = molecular target: T1, human calcitonin receptor (CTR) and RAMP3 (AMY3) (Homo sapiens, UniProt O60896+P30988); test: Amylin Receptor cAMP Assay I; details: COS-7/AMY3 cells, cAMP Hi-range Kit, read-out: Amylin Receptor cAMP Stimulation Activity: EC50
Text: Amylin Receptor cAMP Assay I
AMYRs are heterodimers of the class B calcitonin (CT) G-protein-coupled receptor (CTR) and receptor activity-modifying proteins (RAMPs). All three RAMPs can interact with the CTR and form AMY1, AMY2, AMY3 with RAMP1, RAMP2 and RAMP3, respectively. Like other class B1 GPCRs, the CT receptor family is canonically coupled to Gs-mediated cAMP production, and measurement of cAMP accumulation has been the primary assay used to determine peptide selectivity and potency.
To optimize functional activity directed toward Gas coupling, COS-7 cells were stably transfected with human calcitonin receptor (CTR) and RAMP3, simultaneously. 100×concentration of compound working solutions were prepared (Agilent Technologies Bravo) with 4-fold serial dilution in 384-well Echo LDV plate (Labcyte, Cat #LP-0200). 100 nL/well 100× concentration of compound working solutions were moved to 384-well white low volume plate (Greiner, Cat #784075) using Labcyte ECHO550. 1×10^5 cells/mL COS-7/CTR or COS-7/AMY3 (HD Biosciences) cell suspensions prepared with assay buffer [DPBS containing 0.5 mM IBMX (Sigma, Cat #15879) and 0.1% BSA (GENVIEW, Cat #FAO16-100 g)], 10 μL cell suspensions were added to each well of previous generated assay plate which already contains 100 nL compound at 100× concentration using ThermoFisher Multidrop Combi (1000 cells/well). Seal the plate and incubate at 37° C. with 5% CO2 for 30 min.
After incubation, the cAMP assay signal was generated using cAMP Hi-range Kit (Cisbio). 5 μL cAMP-d2 working solution was added to each well, followed by 5 μL Anti-cAMP antibody-cryptate working solution which was added to each well using ThermoFisher Multidrop Combi. The samples were then incubated at room temperature for 1 hour protected from light. the fluorescence was read at 665 and 615 nm with Reader PerkinElmer EnVision.

[2] = molecular target: T2, human calcitonin receptor (CTR) (Homo sapiens, UniProt P30988); test: Calcitonin receptor (CTR) cAMP Assay; details: COS7-human CTR Clone #2 cells, cAMP dynamic 2 kit; read-out: Calcitonin Receptor cAMP Stimulation Activity: EC50
T2 construct: expressed in transfected cells; host or cells: COS-7 (COS7-human CTR Clone #2)
T2 sequence (P30988 25-474): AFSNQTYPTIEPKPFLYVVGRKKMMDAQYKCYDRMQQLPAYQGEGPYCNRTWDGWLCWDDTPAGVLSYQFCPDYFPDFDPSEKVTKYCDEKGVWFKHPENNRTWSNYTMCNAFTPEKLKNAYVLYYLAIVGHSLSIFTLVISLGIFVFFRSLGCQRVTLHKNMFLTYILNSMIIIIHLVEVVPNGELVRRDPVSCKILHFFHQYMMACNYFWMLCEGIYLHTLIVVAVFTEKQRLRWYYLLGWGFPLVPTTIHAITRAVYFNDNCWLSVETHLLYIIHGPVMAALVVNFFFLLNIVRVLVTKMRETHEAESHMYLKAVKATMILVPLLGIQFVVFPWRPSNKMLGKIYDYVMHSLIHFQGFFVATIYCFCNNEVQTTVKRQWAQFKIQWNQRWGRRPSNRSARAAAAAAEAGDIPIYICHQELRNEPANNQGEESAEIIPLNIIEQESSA
Procedure, shortened: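 COS-7 cells stably expressing human CTR (2000 cells/well) treated with 4-fold serially diluted compounds in HBSS/20 mM HEPES/0.5 mM IBMX/0.1% casein, 30 min at 37° C. cAMP quantified by HTRF (cAMP-d2 plus anti-cAMP cryptate, 1 h RT), fluorescence read at 665 and 615 nm.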

[3] = molecular target: T1, human calcitonin receptor (CTR) and RAMP3 (AMY3); test: Amylin Receptor cAMP Assay II; details: COS-7/AMY3 cells, cAMP dynamic 2 kit, read-out: Amylin Receptor cAMP Stimulation Activity: EC50
Procedure, shortened: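 COS-7 cells stably co-expressing human CTR and RAMP3 (AMY3) were treated with 4-fold serially diluted compounds at 2000 cells/well in HBSS with 20 mM HEPES, 0.5 mM IBMX and 0.1% casein for 30 min at 37 °C. cAMP was measured by HTRF (cAMP-d2 plus anti-cAMP cryptate, 1 h at RT) with reads at 665/615 nm.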

T1 sequence (O60896 24-148, one chain of several): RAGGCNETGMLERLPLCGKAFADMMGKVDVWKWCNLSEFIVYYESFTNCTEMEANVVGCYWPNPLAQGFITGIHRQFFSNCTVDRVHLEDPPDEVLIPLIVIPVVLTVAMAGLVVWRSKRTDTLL

CO[C@H]1C[C@@H](NC(=O)c2ccc(-c3c4c(nc(CCc5ccc(F)cc5)c3-c3nnc(C)o3)[C@@H]3CCCN3C4=O)s2)c2ccccc21 (stereo in doubt) [Compound 30, N-[(1R,3S)-3-methoxy-1-indanyl]-5-{(2S,6R)-11-[2-(p-fluorophenyl)ethyl]-10-(5-methyl-1,3,4-oxadiazol-2-yl)-7-oxo-6,12-diazatricyclo[6.4.0^2,^6]dodeca-1(8),9,11-trien-9-yl}-2-thenamide]
EC50 [1]: 63.5 nM

CO[C@@H]1C[C@@H](NC(=O)c2ccc(-c3c4c(nc(CCc5ccc(F)cc5)c3-c3nnc(C)o3)[C@@H]3CCCN3C4=O)s2)c2ccccc21 (stereo in doubt) [Compound 48]
EC50 [1]: 321 nM

COc1cccc2c1CC[C@H]2NC(=O)c1ccc(-c2c3c(nc(CCc4ccc(F)cc4)c2-c2nnc(C)o2)[C@H](C(C)C)NC3=O)s1 [Compound 3, N—[(R)-4-methoxy-1-indanyl]-5-{(S)-5-[2-(p-fluorophenyl)ethyl]-3-isopropyl-6-(5-methyl-1,3,4-oxadiazol-2-yl)-1-oxo-2,4-diaza-7-indanyl)-2-thenamide]
EC50 [1]: 70.2 nM

Cc1nnc(-c2c(CCc3ccccc3)nc3c(c2-c2ccc(C(=O)NCc4ccc(F)c(F)c4)s2)C(=O)N2CCC[C@@H]32)o1 [Compound 5, (S)—N-(3,4-difluorobenzyl)-5-(3-(5-methyl-1,3,4-oxadiazol-2-yl)-5-oxo-2-phenethyl-7,8,9,9a-tetrahydro-5H-pyrido[2,3-a]pyrrolizin-4-yl)thiophene-2-carboxamide]
EC50 [1]: 67.5 nM

Cc1ccc(CCc2nc3c(c(-c4ccc(C(=O)NCc5ccc(F)c(F)c5)s4)c2-c2nnc(C)o2)C(=O)N2CCC[C@@H]32)nc1 [Compound 6, (S)—N-(3,4-difluorobenzyl)-5-(3-(5-methyl-1,3,4-oxadiazol-2-yl)-2-(2-(5-methylpyridin-2-yl)ethyl)-5-oxo-7,8,9,9a-tetrahydro-5H-pyrido[2,3-a]pyrrolizin-4-yl)thiophene-2-carboxamide]
EC50 [1]: 674 nM

Cc1nnc(-c2c(CCc3ccc(F)cn3)nc3c(c2-c2ccc(C(=O)NCc4ccc(F)c(F)c4)s2)C(=O)N2CCC[C@@H]32)o1 [Compound 8, (S)—N-(3,4-difluorobenzyl)-5-(2-(2-(5-fluoropyridin-2-yl)ethyl)-3-(5-methyl-1,3,4-oxadiazol-2-yl)-5-oxo-7,8,9,9a-tetrahydro-5H-pyrido[2,3-a]pyrrolizin-4-yl)thiophene-2-carboxamide]
EC50 [1]: 3590 nM

Cc1nnc(-c2c(CCc3ccc(F)cc3)nc3c(c2-c2ccc(C(=O)N[C@@H]4COc5ccccc54)s2)C(=O)N2CCC[C@@H]32)o1 [Compound 10, N—((S)-2,3-dihydrobenzofuran-3-yl)-5-((S)-2-(4-fluorophenethyl)-3-(5-methyl-1,3,4-oxadiazol-2-yl)-5-oxo-7,8,9,9a-tetrahydro-5H-pyrido[2,3-a]pyrrolizin-4-yl)thiophene-2-carboxamide]
EC50 [1]: 66.7 nM

Cc1cc(-c2c(CCC3CCOCC3)nc3c(c2-c2ccc4c(c2)oc(=O)n4Cc2ccc(C#N)c(F)c2)c(=O)n2n3CCC2)ccn1 [Compound 151, 2-fluoro-4-[(6-(10-(2-methyl-4-pyridyl)-7-oxo-11-[2-(tetrahydro-2H-pyran-4-yl)ethyl]-2,6,12-triazatricyclo[6.4.0.0^2,6]dodeca-1(12),8,10-trien-9-yl}-2-oxo-1,3-benzoxazol-3-yl)methyl]benzonitrile]
EC50 [2]: 5.12 nM | EC50 [3]: 73 nM

Cc1cnc(-c2c(CCC3CCOCC3)nc3c(c2-c2ccc4c(c2)oc(=O)n4Cc2ccc(C#N)c(F)c2)c(=O)n2n3CCC2)o1 [Compound 152, 2-fluoro-4-[(6-(10-(5-methyl-1,3-oxazol-2-yl)-7-oxo-11-[2-(tetrahydro-2H-pyran-4-yl)ethyl]-2,6,12-triazatricyclo[6.4.0.0^2,6]dodeca-1(12),8,10-trien-9-yl}-2-oxo-1,3-benzoxazol-3-yl)methyl]benzonitrile]
EC50 [2]: 7.28 nM | EC50 [3]: 40.1 nM

CC(C)c1nnc(-c2c(CCC34CCC(CC3)OC4)nc3c(c2-c2ccc4c(c2)oc(=O)n4Cc2ccc(C#N)c(F)c2)c(=O)n2n3CCC2)o1 [Compound 153, 2-fluoro-4-({6-[10-(5-isopropyl-1,3,4-oxadiazol-2-yl)-11-(2-(2-oxabicyclo[2.2.2]oct-4-yl)ethyl}-7-oxo-2,6,12-triazatricyclo[6.4.0.0^2,6]dodeca-1(12),8,10-trien-9-yl]-2-oxo-1,3-benzoxazol-3-yl}methyl)benzonitrile]
EC50 [2]: 0.324 nM | EC50 [3]: 12.2 nM

Cc1cnc(-c2c(CCC34CCC(CC3)OC4)nc3c(c2-c2ccc4c(c2)OCC(=O)N4Cc2ncc(Cl)cc2F)c(=O)n2n3CCC2)o1 [Compound 156]
EC50 [2]: 1.49 nM | EC50 [3]: 54.7 nM

Cc1cnc(-c2c(CCC34CCC(CC3)OC4)nc3c(c2-c2ccc4c(c2)OCC(=O)N4Cc2ccc(F)cn2)c(=O)n2n3CCC2)o1 [Compound 157, 9-(4-[(5-fluoro-2-pyridyl)methyl]-3-oxo-2,4-dihydro-1,4-benzoxazin-7-yl}-10-(5-methyl-1,3-oxazol-2-yl)-11-(2-(2-oxabicyclo[2.2.2]oct-4-yl)ethyl}-2,6,12-triazatricyclo[6.4.0.0^2,6]dodeca-1(12),8,10-trien-7-one]
EC50 [2]: 9.64 nM | EC50 [3]: 270 nM

Cc1nnc(-c2c(C(C)C)nc3c(c2-c2ccc4c(c2)OCC(=O)N4Cc2ccc(F)cn2)C(=O)N2CCC[C@@H]32)o1 [Compound 158, 7-((2S)-11-isopropyl-10-(5-methyl-1,3,4-oxadiazol-2-yl)-7-oxo-6,12-diazatricyclo[6.4.0.0^2,6]dodeca-1(12),8,10-trien-9-yl}-4-[(5-fluoro-2-pyridyl)methyl]-2,4-dihydro-1,4-benzoxazin-3-one]
EC50 [2]: 242 nM | EC50 [3]: 5880 nM

Cc1cnc(-c2c(CCC34CCC(CC3)OC4)nc3c(c2-c2ccc4c(c2)OC(C)(C)C(=O)N4Cc2ccc(F)cn2)c(=O)n2n3CCC2)o1 [Compound 159, 9-(4-[(5-fluoro-2-pyridyl)methyl]-2,2-dimethyl-3-oxo-2,4-dihydro-1,4-benzoxazin-7-yl}-10-(5-methyl-1,3-oxazol-2-yl)-11-(2-(2-oxabicyclo[2.2.2]oct-4-yl)ethyl}-2,6,12-triazatricyclo[6.4.0.0^2,6]dodeca-1(12),8,10-trien-7-one]
EC50 [2]: 3.67 nM | EC50 [3]: 70.2 nM

Cc1nnc(-c2c(C(C)C)nc3c(c2-c2ccc4c(c2)OC(C)(C)C(=O)N4Cc2ccc(F)cn2)C(=O)N2CC4CC32C4)o1 [Compound 160, 4-[(5-fluoro-2-pyridyl)methyl]-7-[4-isopropyl-5-(5-methyl-1,3,4-oxadiazol-2-yl)-8-oxo-3,9-diazatetracyclo[9.1.1.0^1,9.0^2,7]trideca-2,4,6-trien-6-yl]-2,2-dimethyl-4H-1,4-benzoxazin-3(2H)-one]
EC50 [2]: 26.9 nM | EC50 [3]: 596 nM

CCc1nc2c(c(-c3ccc4c(c3)OC(C)(C)C(=O)N4Cc3ccc(F)cn3)c1-c1nnc(C)o1)C(=O)N1CC3CC21C3 [Compound 161, 7-[4-ethyl-5-(5-methyl-1,3,4-oxadiazol-2-yl)-8-oxo-3,9-diazatetracyclo[9.1.1.01, 0.2,1]trideca-2,4,6-trien-6-yl]-4-[(5-fluoro-2-pyridyl)methyl]-2,2-dimethyl-4H-1,4-benzoxazin-3(2H)-one]
EC50 [2]: 226 nM | EC50 [3]: 5380 nM
